What was measured:
Assay type in all cases: biochemical
firefly luciferase [1] = conditions: reactions without RdRp or template, nucleotide 1 μM final
Description: (§1) To test the effect of NTPs on the ATP sulfurylase/luciferase coupled read-out system, control reactions for NS5B assays (with 0.3 U ATP sulfurylase) were assembled as above omitting RdRp and RNA. Reactions were initiated by addition of nucleotide (1 μM final). To reduce free PPi in commercial NTPs, 10 mM stocks were pretreated with inorganic pyrophosphatase. A 10 μl aliquot of the NTP stock was incubated with 0.5 U of thermostable inorganic pyrophosphatase for 10 minutes at 75° C.; untreated NTP samples were processed in parallel as controls. Treated and untreated NTPs were diluted to 100 μM working stocks for subsequent assays.
(§2) Another possible source of background is direct utilization of the NTPs by the ATP sulfurylase/luciferase cascade. To address this possibility, reactions without either RdRp or template were examined.

firefly luciferase [2] = biological target: T1, firefly luciferase (Photinus pyralis, UniProt P08659)
T1 construct: purchased Promega (Madison, Wis.)
T1 sequence (P08659 whole entry): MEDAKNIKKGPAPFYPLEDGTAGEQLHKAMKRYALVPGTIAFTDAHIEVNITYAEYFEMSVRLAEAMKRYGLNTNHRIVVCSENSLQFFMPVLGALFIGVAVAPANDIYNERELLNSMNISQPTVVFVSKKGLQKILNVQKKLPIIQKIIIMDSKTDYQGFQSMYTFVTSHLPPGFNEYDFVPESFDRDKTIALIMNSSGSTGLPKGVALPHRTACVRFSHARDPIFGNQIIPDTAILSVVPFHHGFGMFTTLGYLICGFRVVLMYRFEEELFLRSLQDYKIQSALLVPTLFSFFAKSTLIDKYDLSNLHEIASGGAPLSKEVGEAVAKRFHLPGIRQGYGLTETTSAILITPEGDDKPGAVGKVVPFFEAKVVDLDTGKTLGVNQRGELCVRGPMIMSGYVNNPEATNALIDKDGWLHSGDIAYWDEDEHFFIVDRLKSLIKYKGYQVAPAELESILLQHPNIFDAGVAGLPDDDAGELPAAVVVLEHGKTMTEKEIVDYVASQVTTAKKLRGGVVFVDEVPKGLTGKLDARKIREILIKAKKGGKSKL
Description: as §1, §2

HCV NS5B = biological target: T2, HCV NS5B (Hepatitis C virus genotype 1b, UniProt P26663); assay: Continuous non-radioactive (luciferase-coupled) NS5B polymerase assay, inhibitor test; conditions: NS5B 20 nM, GTP 1 μM, inhibitor 0.1-2.5 μM, FIG. 3
T2 construct: The HCV NS5BΔ55 enzyme was prepared as described by Ferrari et al; made in house
T2 sequence (P26663 2420-2955): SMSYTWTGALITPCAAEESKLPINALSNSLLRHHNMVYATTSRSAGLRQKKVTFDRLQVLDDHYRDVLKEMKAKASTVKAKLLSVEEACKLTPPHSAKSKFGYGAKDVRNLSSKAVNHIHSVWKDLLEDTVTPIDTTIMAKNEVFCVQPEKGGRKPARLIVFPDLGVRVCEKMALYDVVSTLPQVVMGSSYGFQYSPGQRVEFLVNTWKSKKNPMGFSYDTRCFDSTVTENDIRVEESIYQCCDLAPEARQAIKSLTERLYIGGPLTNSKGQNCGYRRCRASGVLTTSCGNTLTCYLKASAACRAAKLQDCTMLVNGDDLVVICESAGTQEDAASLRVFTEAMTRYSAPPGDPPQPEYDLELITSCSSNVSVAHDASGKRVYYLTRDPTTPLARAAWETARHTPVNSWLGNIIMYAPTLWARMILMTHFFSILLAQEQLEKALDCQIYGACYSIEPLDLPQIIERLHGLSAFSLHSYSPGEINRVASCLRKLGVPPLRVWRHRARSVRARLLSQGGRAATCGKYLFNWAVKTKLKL
Description: Polymerase assays were performed at room temperature using a 100 μl reaction mix in a 96-well plate. Final reaction conditions for NS5B were modified from those used by Ferrari et al. J. Virol. 73:1649-54 (1999) [20 mM Hepes pH 7.3; 7.5 mM DTT; 20 U/ml RNAsin; 0.5 μg/ml oligo(G)12; 5 μg/ml poly(C); 1 μM GTP; 10 mM MgCl2; 60 mM NaCl; 100 μg/ml BSA; and NS5B]. NS5B assay mixtures were supplemented with components for the ATP sulfurylase and luciferase coupled enzyme reactions [0.5 mM coenzyme A (CoA); 310 μM D-luciferin; 1 nM luciferase; 5 μM APS; 0.03-0.3 U ATP sulfurylase (see Brief Description of the Drawings for specific conditions)]. […]
To test the effect of inhibitors on the NS5B polymerase reaction, compounds were diluted in the appropriate diluents and added to the GTP-containing mixture. Microtiter plates containing the reaction samples were immediately transferred to the luminometer for detection of the light signal generated over time, taking a 0.2-1.0 s reading of each well every 30-60 s (time intervals depend on the number of samples tested). Readings were monitored in comparison to a no-NS5B reaction as a control for ATP generation in the absence of polymerase activity. […]

Nc1nc2c(ncn2[C@@H]2O[C@H](COP(=O)(O)OP(=O)(O)OP(=O)(O)O)[C@@H](O)[C@H]2O)c(=O)[nH]1 [GTP]
Utilization of NTP as substrate by the ATP sulfurylase/luciferase cascade (background signal) (firefly luciferase [1]): lowest level of signal

Nc1ncnc2c1ncn2[C@@H]1O[C@H](COP(=O)(O)OP(=O)(O)OP(=O)(O)O)[C@@H](O)[C@H]1O [ATP, Adenosine 5′-triphosphate]
Km (firefly luciferase [2]; read-out: Km for the luciferase reaction, under these experimental conditions, data not shown): 0.65 ± 0.04 µM

Nc1nc2c(ncn2[C@@H]2O[C@H](COP(=O)(O)OP(=O)(O)OP(=O)(O)O)C[C@H]2O)c(=O)[nH]1 [3′-deoxyguanosine-5′ triphosphate]
Inhibition of NS5B activity (reduced levels of light generated) (HCV NS5B; 30 minute reaction): Dose- and time-dependent inhibition | Mode of inhibition from progress curves (HCV NS5B): consistent with chain termination

O=P(O)(O)OP(=O)(O)OP(=O)(O)OC[C@H]1O[C@@H](n2cnc3c(O)ncnc32)[C@H](O)[C@@H]1O [Inosine triphosphate (ITP), Inosine triphosphate]
Luciferase substrate quality relative to GTP (firefly luciferase [2]; reactions without RdRp or template, nucleotide 1 μM final): about 10 fold | Utilization of NTP as substrate by the ATP sulfurylase/luciferase cascade (background signal) (firefly luciferase [1]): relatively good luciferase substrate

Nc1ncnc2c1ncn2[C@@H]1O[C@H](COP(O)(=S)OP(=O)(O)OP(=O)(O)O)[C@@H](O)[C@H]1O (stereo partly shown) [ATPαS]
Utilization of NTP as substrate by the ATP sulfurylase/luciferase cascade (background signal) (firefly luciferase [1]): poor substrate for luciferase

Reference: patent US20040142322A1, “Continuous non-radioactive polymerase assay” (priority 2002, published 2004)
